Literature values, collected in patent US10463707B2, “Process for preparing herbal extracts” (MOLEAC PTE LTD., priority 2015, dated 2019).

Conditions: Chen et al. Planta Med 2009

## C/C=C\c1cc(OC)c(OC)cc1OC [beta asarone]
  Safe limits for beta asarone consumption: 0.115 mg per person per day
Equivalent to the per-person limit
  Safe limits for beta asarone consumption (equivalent): 0.002 mg/kg body weight/day
